Measured values published in ChEMBL document CHEMBL1201862, “PubChem BioAssay data set” (2004).
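Briefly, cells in 96-well plates were exposed to five compound concentrations for 48 h, and endpoints were estimated by linear interpolation. GI50 is the concentration that inhibits growth by half.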 Calls of active or inactive are those of the source. Cut-off read from the data, not from the text of the source: active = GI50 up to about 1.1 µM and inactive = higher.

Key:
Test in all cases: growth of human tumour cells (NCI), 48 h
UACC-257 = system: UACC-257
DU-145 = system: DU-145
HT-29 = system: HT-29
K562 = system: K562
MDA-MB-435 = system: MDA-MB-435
TK-10 = system: TK-10
BT-549 = system: BT-549
EKVX = system: EKVX
CAKI-1 = system: CAKI-1
RXF 393 = system: RXF 393
HCC 2998 = system: HCC 2998
HOP-62 = system: HOP-62
MOLT-4 = system: MOLT-4
MDA-MB-231 = system: MDA-MB-231
A549 = system: A549
U-251 = system: U-251
SK-OV-3 = system: SK-OV-3
MDA-N = system: MDA-N
ACHN = system: ACHN

Measured: GI50

Cc1ccc(/N=N/NCCCCN/N=N/c2ccc(C)cc2)cc1
inactive: UACC-257 > 100 µM | DU-145 32 µM | HT-29 > 100 µM | K562 > 100 µM | MDA-MB-435 11.8 µM | TK-10 1.65 µM | BT-549 > 100 µM | EKVX > 100 µM | CAKI-1 > 100 µM | RXF 393 > 100 µM | HCC 2998 13.9 µM | HOP-62 47.9 µM | MOLT-4 14.2 µM | MDA-MB-231 > 100 µM | A549 6.04 µM | U-251 > 100 µM | SK-OV-3 > 100 µM | MDA-N 16.5 µM

COC(=O)C12C(=O)CC3CCC1C32C(=O)OC (stereo not given)
inactive: UACC-257 > 100 µM | DU-145 > 100 µM | HT-29 > 100 µM | ACHN > 100 µM | K562 > 100 µM | MDA-MB-435 > 100 µM | TK-10 > 100 µM | BT-549 > 100 µM | EKVX > 100 µM | CAKI-1 > 100 µM | RXF 393 > 100 µM | HCC 2998 > 100 µM | HOP-62 > 100 µM | MOLT-4 > 100 µM | MDA-MB-231 > 100 µM | A549 > 100 µM | U-251 > 100 µM | SK-OV-3 > 100 µM | MDA-N > 100 µM

O=C(O)c1nc2ccccc2nc1Nc1ccc(Cl)c(Cl)c1
inactive: UACC-257 31.8 µM | DU-145 36.4 µM | ACHN 29.5 µM | K562 21.7 µM | MDA-MB-435 28.4 µM | TK-10 42.9 µM | BT-549 16.1 µM | EKVX 33.1 µM | CAKI-1 33 µM | RXF 393 25.4 µM | HCC 2998 18.2 µM | HOP-62 16.1 µM | MOLT-4 15.8 µM | MDA-MB-231 31.3 µM | A549 24.1 µM | U-251 22.1 µM | SK-OV-3 28.3 µM | MDA-N 24.9 µM

O=C(CC(=O)N(C(=O)c1ccccc1)c1ccc(Cl)cc1)N/N=C\c1cc(/N=N/c2ccccc2Cl)ccc1O
inactive: DU-145 > 100 µM | HT-29 > 100 µM | ACHN > 100 µM | K562 17.3 µM | MDA-MB-435 > 100 µM | TK-10 27.2 µM | BT-549 > 100 µM | EKVX 90.2 µM | CAKI-1 > 100 µM | RXF 393 29.8 µM | HCC 2998 > 100 µM | HOP-62 39.5 µM | MOLT-4 18.7 µM | MDA-MB-231 29.2 µM | A549 > 100 µM | U-251 39 µM | SK-OV-3 52.1 µM | MDA-N > 100 µM

CC1(C)CC(=O)C2=C(C1)NC(=S)C(C#N)C2c1ccccc1 (stereo not given)
inactive: UACC-257 > 100 µM | DU-145 > 100 µM | HT-29 > 100 µM | ACHN > 100 µM | K562 75.9 µM | MDA-MB-435 > 100 µM | TK-10 > 100 µM | BT-549 > 100 µM | EKVX > 100 µM | CAKI-1 > 100 µM | RXF 393 > 100 µM | HCC 2998 > 100 µM | HOP-62 > 100 µM | MDA-MB-231 > 100 µM | A549 > 100 µM | U-251 > 100 µM | SK-OV-3 > 100 µM | MDA-N > 100 µM

CCCn1cnc2c(SCc3ccc(Cl)cc3)nc(N)nc21
inactive: UACC-257 18.5 µM | DU-145 36.6 µM | HT-29 19.9 µM | ACHN 16.3 µM | K562 16.2 µM | MDA-MB-435 23.1 µM | TK-10 13.5 µM | BT-549 29.1 µM | EKVX 15.5 µM | CAKI-1 24.8 µM | RXF 393 22.3 µM | HCC 2998 20 µM | HOP-62 17.3 µM | MDA-MB-231 16.9 µM | A549 39.4 µM | U-251 23.1 µM | SK-OV-3 27.9 µM | MDA-N 21.9 µM

COc1ccc(S(=O)(=O)n2c3c(c4ccccc42)[C@@H]2[C@@H](CCCN2C(=O)C[S+]([O-])c2ccc(C)cc2)[C@H](Cl)C3)cc1 (stereo not given in full)
inactive: UACC-257 > 100 µM | DU-145 > 100 µM | HT-29 > 100 µM | K562 > 100 µM | MDA-MB-435 > 100 µM | TK-10 32 µM | BT-549 5.83 µM | EKVX > 100 µM | CAKI-1 > 100 µM | RXF 393 > 100 µM | HCC 2998 > 100 µM | HOP-62 > 100 µM | MOLT-4 > 100 µM | MDA-MB-231 > 100 µM | A549 > 100 µM | U-251 > 100 µM | SK-OV-3 > 100 µM | MDA-N > 100 µM

COC(c1ccc(C(C)(C)C)cc1)(c1ccc(C(C)(C)C)cc1)c1cc(C(O)(c2cc(C(OC)(c3ccc(C(C)(C)C)cc3)c3ccc(C(C)(C)C)cc3)c(C)cc2C)c2cc(C(OC)(c3ccc(C(C)(C)C)cc3)c3ccc(C(C)(C)C)cc3)c(C)cc2C)c(C)cc1C
inactive: UACC-257 > 100 µM | DU-145 > 100 µM | HT-29 > 100 µM | K562 > 100 µM | MDA-MB-435 > 100 µM | TK-10 > 100 µM | BT-549 > 100 µM | EKVX > 100 µM | CAKI-1 > 100 µM | RXF 393 > 100 µM | HCC 2998 > 100 µM | HOP-62 > 100 µM | MOLT-4 > 100 µM | MDA-MB-231 > 100 µM | A549 > 100 µM | U-251 > 100 µM | SK-OV-3 > 100 µM | MDA-N > 100 µM
